Results reported in US5827715A, “Heat resistant maltose phosphorylase, process for preparation thereof, bacteria used for preparation thereof, and methods for using the enzyme” (Showa Sangyo Co., Ltd., priority 1995, dated 1998).
Like-named read-outs stand apart in the source and are kept apart here.

What was measured:
[1] = biological target: T1, heat resistant maltose phosphorylase (Bacillus sp. RK-1, UniProt Q84IX5); assay: Inhibitor test on heat resistant maltose phosphorylase activity; assay type: biochemical; details: for activity at 1000 µM: read-out: Relative activity (%); for inhibition of the activity: 1 mM inhibitor, heat resistant maltose phosphorylase
T1 sequence (Q84IX5 entry or part of it, change not shown): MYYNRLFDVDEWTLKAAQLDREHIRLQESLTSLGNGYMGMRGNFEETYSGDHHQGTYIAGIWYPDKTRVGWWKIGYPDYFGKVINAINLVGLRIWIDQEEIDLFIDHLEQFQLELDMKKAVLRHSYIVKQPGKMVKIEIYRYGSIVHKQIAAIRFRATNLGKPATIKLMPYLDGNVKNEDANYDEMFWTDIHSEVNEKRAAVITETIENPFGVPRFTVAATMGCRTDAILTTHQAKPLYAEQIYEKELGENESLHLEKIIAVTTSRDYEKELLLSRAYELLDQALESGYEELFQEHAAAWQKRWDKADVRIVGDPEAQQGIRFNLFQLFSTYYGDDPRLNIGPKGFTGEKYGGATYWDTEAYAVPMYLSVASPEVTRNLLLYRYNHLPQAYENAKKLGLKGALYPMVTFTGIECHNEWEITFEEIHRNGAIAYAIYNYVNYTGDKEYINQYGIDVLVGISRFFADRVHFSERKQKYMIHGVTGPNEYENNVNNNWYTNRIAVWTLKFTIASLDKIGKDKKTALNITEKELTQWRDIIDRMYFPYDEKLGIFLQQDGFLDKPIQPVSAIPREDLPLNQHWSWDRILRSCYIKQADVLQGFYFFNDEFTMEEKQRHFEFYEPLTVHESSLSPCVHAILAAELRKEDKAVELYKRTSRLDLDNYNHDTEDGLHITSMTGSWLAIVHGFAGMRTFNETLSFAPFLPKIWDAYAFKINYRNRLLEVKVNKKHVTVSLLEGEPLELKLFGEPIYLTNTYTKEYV
Protocol: (§1) The enzymological properties of the heat resistant maltose phosphorylase of the invention are as follows. As the heat resistant maltose phosphorylase,one obtained in Example 1 and prepared from Bacillus sp. RK-1 was used.
(§2) In this connection, maltose phosphorylase activity was assayed according to the following method. An enzyme solution (0.4 ml), 0.06 ml of 0.5M potassium phosphate-citric acid buffer (pH 6.0), 0.6 ml of 2 w/v % maltose and 0.14 ml of distilled water were mixed, and reaction was carried out at 60° C. for 15 minutes and ceased by boiling for 10 minutes. Then, 0.02 ml of a sample was taken from the reaction-ceased solution, 3 ml of a reagent for glucose examination (Glucose CII-Test Wako; Wako Pure Chemical Industries, Ltd.) was added, reaction was carried at room temperature for 20 minutes, the absorbance at 505 nm was measured using a spectrophotometer, and the amount of glucose formed in the reaction solution was determined from the measured value. From the amount of the formed glucose, the amount of the enzyme necessitated to phosphorolyze 1 μmol of maltose in one minute is calculated, and was assumed to be 1 unit.

[2] = biological target: T2, heat resistant trehalose phosphorylase (Geobacillus stearothermophilus, UniProt Q8GRC3); assay: biochemical; assay type: biochemical, Bacillus stearothermophilus SK-1; details: for activity at 1000 µM: read-out: Relative activity (%); for inhibition of the activity: 1 mM inhibitor, heat resistant trehalose phosphorylase
T2 construct: heat resistant trehalose phosphorylase which Bacillus stearothermophilus SK-1 found by the present inventors produces; made in house; host or cells: Bacillus stearothermophilus SK-1 (FERM BP-5594), the producing strain itself
T2 sequence (Q8GRC3 whole entry, change not shown): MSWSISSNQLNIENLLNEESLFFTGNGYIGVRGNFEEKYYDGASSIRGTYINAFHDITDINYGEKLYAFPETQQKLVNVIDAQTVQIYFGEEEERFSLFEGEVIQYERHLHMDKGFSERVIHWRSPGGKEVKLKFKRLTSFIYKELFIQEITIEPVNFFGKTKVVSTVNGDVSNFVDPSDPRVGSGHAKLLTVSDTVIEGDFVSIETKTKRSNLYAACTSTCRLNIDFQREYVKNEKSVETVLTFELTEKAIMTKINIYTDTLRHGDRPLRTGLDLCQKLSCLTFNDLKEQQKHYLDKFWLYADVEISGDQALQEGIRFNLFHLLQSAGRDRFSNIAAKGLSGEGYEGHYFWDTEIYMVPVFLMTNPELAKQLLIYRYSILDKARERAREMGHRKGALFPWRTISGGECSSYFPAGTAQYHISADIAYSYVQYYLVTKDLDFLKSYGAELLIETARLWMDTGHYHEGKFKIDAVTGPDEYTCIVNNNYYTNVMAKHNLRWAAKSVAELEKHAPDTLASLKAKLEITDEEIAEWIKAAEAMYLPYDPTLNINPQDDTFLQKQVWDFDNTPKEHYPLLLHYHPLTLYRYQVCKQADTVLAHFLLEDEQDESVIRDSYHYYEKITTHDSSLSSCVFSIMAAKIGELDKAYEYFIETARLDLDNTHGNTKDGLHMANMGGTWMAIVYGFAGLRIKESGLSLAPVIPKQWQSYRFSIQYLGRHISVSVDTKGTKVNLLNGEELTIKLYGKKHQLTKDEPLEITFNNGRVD
Excerpt: As the heat resistant maltose phosphorylase in the above process, there can be used the same ones as in the above process for preparation of β-glucose-1-phosphoric acid can be used. As the heat resistant trehalose phosphorylase, any one can be used so long as it can produce trehalose from maltose and phosphoric acid or a phosphate salt at one of the above reaction temperatures and at one of the above pH values, with the aid of the heat resistant maltose phosphorylase. […] The SK-1 strain was first deposited on Sep. 29, 1994 with National Institute of Bioscience and Human Technology, Agency of Industrial Science and Technology, the Ministry of International Trade and Industry, Japan under an accession number of FERM P-14567, and then transferred there to deposit according to Budapest Treaty on microorganisms on Jul. 17, 1996, and is assigned an accession number of FERM BP-5594. An example of preparation of the above heat resistant trehalose phosphorylase is shown in Example 4 (crude enzyme) and Reference example 1 (purified enzyme).
(§3) In this connection, trehalose phosphorylase activity was assayed by the following method. An enzyme solution (0.4 ml), 0.06 ml of 0.5M potassium phosphate-citric acid buffer (pH 6.0), 0.6 ml of 2 w/v % trehalose and 0.14 ml of distilled water were mixed, and reaction was carried out at 60° C. for 20 minutes and ceased by boiling for 10 minutes. Then, 0.02 ml of a sample was taken from the reaction-ceased solution, 3 ml of a reagent for glucose examination (Glucose CII-Test Wako; Wako Pure Chemical Industries, Ltd.) was added, reaction was carried out at room temperature for 20 minutes, the absorbance at 505 nm was measured using a spectrophotometer, and the amount of glucose formed in the reaction solution was determined from the measured value. As to the definition of the trehalose phosphorylase activity, the amount of the enzyme necessitated to phosphorolyze 1 μmol of trehalose in one minute under the above assay conditions was assumed to be 1 unit.

[3] = biological target: T1, heat resistant maltose phosphorylase; assay: Substrate specificity of heat resistant maltose phosphorylase (phosphorolysis reaction, glucose formed); assay type: biochemical; design: Relative activity (%): concentration or dose not given beside the values; details: for Relative activity (%): each substance as substrate of phosphorolysis by heat resistant maltose phosphorylase, maltose = 100; for formation of glucose: phosphorolysis reaction with the substance as substrate, heat resistant maltose phosphorylase
Protocol: as §1, §2

[4] = biological target: T2, heat resistant trehalose phosphorylase; assay: Substrate specificity of heat resistant trehalose phosphorylase (phosphorolysis reaction, glucose formed); assay type: biochemical, Bacillus stearothermophilus SK-1; design: Relative activity (%): concentration or dose not given beside the values; details: for Relative activity (%): each substance as substrate of phosphorolysis by heat resistant trehalose phosphorylase, trehalose = 100; for formation of glucose: phosphorolysis reaction with the substance as substrate, heat resistant trehalose phosphorylase
Excerpt: As the heat resistant maltose phosphorylase in the above process, there can be used the same ones as in the above process for preparation of β-glucose-1-phosphoric acid can be used. As the heat resistant trehalose phosphorylase, any one can be used so long as it can produce trehalose from maltose and phosphoric acid or a phosphate salt at one of the above reaction temperatures and at one of the above pH values, with the aid of the heat resistant maltose phosphorylase. However, there can, preferably, be used heat resistant trehalose phosphorylase having an activity of 95% or more of the one untreated after treated in a buffer of pH 6.0, at one temperature of 50° to 65° C., preferably at one temperature of 55° to 65° C., further preferably at one temperature of 60° to 65° C., particularly preferably at 65° C., for 15 minutes. As an example of heat resistant trehalose phosphorylase having such a property, there can be mentioned heat resistant trehalose phosphorylase which Bacillus stearothermophilus SK-1 found by the present inventors produces. The SK-1 strain was first deposited on Sep. 29, 1994 with National Institute of Bioscience and Human Technology, Agency of Industrial Science and Technology, the Ministry of International Trade and Industry, Japan under an accession number of FERM P-14567, and then transferred there to deposit according to Budapest Treaty on microorganisms on Jul. 17, 1996, and is assigned an accession number of FERM BP-5594. An example of preparation of the above heat resistant trehalose phosphorylase is shown in Example 4 (crude enzyme) and Reference example 1 (purified enzyme). The enzymological properties of this purified enzyme are as follows.
as §3

[5] = maltose phosphorylase activity with 1 mM inhibitor, no addition = 100
[6] = trehalose phosphorylase activity with 1 mM inhibitor, no addition = 100

Compound	Relative activity (%) [1, 5]	Relative activity (%) [2, 6]	Relative activity (%) [3]	Relative activity (%) [4]	further results
O[C@H](CS)[C@H](O)CS (racemic) [DTT, Dithiothreitol]	–	–	–	–	activity at 1000 µM [1, 5]: 101%; activity at 1000 µM [2, 6]: 86%
[Ba+2].[OH-].[OH-] [Ba (OH)2]	100%	106%	–	–	–
[Ca+2].[Cl-].[Cl-] [CaCl2]	101%	102%	–	–	–
OC[C@H]1O[C@@H](O[C@H]2[C@H](O)[C@@H](O)C(O)O[C@@H]2CO)[C@H](O)[C@@H](O)[C@@H]1O (stereo partly drawn) [Cellobiose]	–	–	0%	2%	formation of glucose [3]: scarcely observed; formation of glucose [4]: scarcely observed
O=S(=O)([O-])[O-].[Cu+2] [CuSO4]	91%	89%	–	–	–
O=[N+]([O-])c1ccc(O[C@H]2O[C@H](CO)[C@@H](O)[C@H](O)[C@H]2O)cc1 [D - glucosideyl - α, p-nitrophenyl-α-D-glucoside]	–	–	0%	2%	formation of glucose [3]: scarcely observed; formation of glucose [4]: scarcely observed
O=[N+]([O-])c1ccc(O[C@@H]2O[C@H](CO)[C@@H](O)[C@H](O)[C@H]2O)cc1 [D - glucosideyl - β, p-nitrophenyl-β-D-glucoside]	–	–	0%	2%	formation of glucose [3]: scarcely observed; formation of glucose [4]: scarcely observed
O=C(O)CN(CCN(CC(=O)O)CC(=O)O)CC(=O)O [EDTA.2Na]	–	–	–	–	activity at 1000 µM [1]: 100%
O=C(O)CN(CCN(CC(=O)O)CC(=O)O)CC(=O)O [EDTA]	–	–	–	–	activity at 1000 µM [2]: 99%
[Cl][Fe][Cl] [FeCl2]	94%	96%	–	–	–
OC[C@H]1O[C@@H](OC[C@H]2OC(O)[C@H](O)[C@@H](O)[C@@H]2O)[C@H](O)[C@@H](O)[C@@H]1O (stereo partly drawn) [Gentiobiose]	–	–	2%	–	–
[Cl][Hg][Cl] [HgCl2]	1%	1%	–	–	inhibition of the activity [1]: 99%; inhibition of the activity [2]: 99%
OC[C@H]1O[C@H](OC[C@H]2OC(O)[C@H](O)[C@@H](O)[C@@H]2O)[C@H](O)[C@@H](O)[C@@H]1O (stereo partly drawn) [Isomaltose]	–	–	2%	3%	formation of glucose [3]: scarcely observed; formation of glucose [4]: scarcely observed
OC[C@H]1O[C@@H](O[C@H]2[C@H](O)[C@@H](O)C(O)O[C@@H]2CO)[C@H](O)[C@@H](O)[C@H]1O (stereo partly drawn) [Lactose]	–	–	0%	–	–
OC[C@H]1O[C@H](O[C@H]2[C@H](O)[C@@H](O)[C@H](O)O[C@@H]2CO)[C@H](O)[C@@H](O)[C@@H]1O [Maltose]	–	–	100%	1%	formation of glucose [4]: scarcely observed
OCCS [Mercaptoethanol]	–	–	–	–	activity at 1000 µM [1, 5]: 94%; activity at 1000 µM [2, 6]: 96%
[Cl-].[Cl-].[Mg+2] [MgCl2]	100%	103%	–	–	–
O=S(=O)([O-])[O-].[Mn+2] [MnSO4]	111%	108%	–	–	–
OC[C@H]1O[C@@H](O[C@H]2O[C@H](CO)[C@@H](O)[C@H](O)[C@H]2O)[C@H](O)[C@@H](O)[C@@H]1O [Neotrehalose]	–	–	0%	1%	formation of glucose [3]: scarcely observed; formation of glucose [4]: scarcely observed
O=C(O)c1cc[c]([Hg][Cl])cc1 [PCMB, p (Chloromercuri) benzoic acid]	20%	0%	–	–	–
CC(=O)[O-].CC(=O)[O-].[Pb+2] [Pb (CH3 COO)2]	99%	93%	–	–	–
OC[C@H]1O[C@@](CO)(O[C@H]2O[C@H](CO)[C@@H](O)[C@H](O)[C@H]2O)[C@@H](O)[C@@H]1O [Sucrose]	–	–	0%	1%	formation of glucose [3]: scarcely observed; formation of glucose [4]: scarcely observed
OC[C@H]1O[C@H](O[C@H]2O[C@H](CO)[C@@H](O)[C@H](O)[C@H]2O)[C@H](O)[C@@H](O)[C@@H]1O [Trehalose]	–	–	0%	100%	formation of glucose [3]: scarcely observed
O=S(=O)([O-])[O-].[Zn+2] [ZnSO4]	63%	20%	–	–	inhibition of the activity [1]: 37%; inhibition of the activity [2]: 80%
Soluble starch	–	–	2%	–	–
